Data published in patent US5932580A, “PDGF receptor kinase inhibitory compounds their preparation and compositions” (priority 1997, dated 1999).

Assays:
Type in all cases: cell-based
[1] = system: porcine endothelial cells (EC); assay: Inhibition of cell proliferation and recovery, porcine EC; conditions: Sus scrofa, Endothelial cell; FIG. 8 experiment; 10 μM; read-out: maximal inhibitory effect on porcine EC proliferation
From the text: Endothelial cells (EC) were isolated from porcine carotid arteries. Using aseptic procedure, both common carotid arteries were isolated, and the distal end of each artery was cannulated through an arteriotomy and ligated. The arteries were then perfused with phosphate buffered saline (PBS) and the proximal end ligated isolating a 5-7 cm long blood-free portion of the artery. The isolated portion of each artery was filled with PBS containing calcium and magnesium and 0.1% collagenase (Boehringer Manneheim, Germany). The segments were excised and incubated for 10 min at 37° C. in sterile bottles containing PBS. […] Cells were seeded on fibronectin-coated dishes at a seeding density of 15,000 cells/well and incubated at 37° C. in 9% CO2. ECGS (25 μg/ml) was added every other day until confluence was observed, typically within 6-8 days.
Inhibition of cell proliferation and recovery: Monolayer cell growth inhibition and recovery experiments were repeated 3 or 4 times. Each experiment was performed in triplicate. […] Cultures were treated with a tyrphostin (10 μM) dissolved in 0.1% DMSO on days 1 and 3. On day 6, cultures were washed and the cells allowed to recover. Typically cells were counted on days 3 and 5 for inhibition, and on days 7, 10 and 15 for recovery, other schedules were also employed as reported below.

PDGF β-receptor = target: T1, PDGF β-receptor (Sus scrofa, UniProt F1RL75); assay: PDGF induced PDGFR autophosphorylation in intact SMC cells; conditions: porcine arterial SMC; for inhibition of PDGF-BB induced PDGF β-receptor tyrosine-phosphorylation: tyrphostin 10 μM, 60 min preincubation, PDGF-BB 100 ng/ml
T1 construct: PDGF-BB stimulated; immunoprecipitated with PDGF beta-receptor specific antiserum R3
Experimental: Effect of tyrphostins on PDGF induced PDGFR autophosphorylation in intact SMC cells: Subconfluent porcine arterial smooth muscle cells, cultivated in Dulbecco's modified Eagle's medium (DMEM) supplemented with 15% fetal calf serum (FCS), were synchronized for 20 hours in a medium containing 2% FCS. […] After stimulation, the cells were solubilized in Nonidet P-40 (1%) containing lysis buffer.
The analysis of PDGF p-receptor phosphorylation was performed as follows. Cell lysates were subjected to immunoprecipitation using the PDGF β-receptor specific antiserum R3 [5]. The percipitates were subjected to polyacrylamide (7.5%) gel electrophoresis in presence of sodium deducyl sulfate (SDS-PAGE) and were thereafter blotted onto a nitrocellulose membrane (Hybond C-EXTRA, Amersham). Phosphorylated proteins were detected by immunoblotting using the horseradish-peroxidase conjugated phosphotyrosine antibody RC20H (Transduction Laboratories), followed by chemoluminescence-based detection (ECL, Amersham) and autoradiography.
Detection of receptor proteins was performed as follows. Cell lysates were subjected to immunoprecipitation using the PDGF β-receptor specific antiserum R3 [5], as described above, and the percipitates washed three times and thereafter subjected to SDS-PAGE (7.5%) and blotting onto a nitrocellulose membrane (Hybond C-EXTRA, Amersham). Receptor proteins were detected by immunoblotting using the horseradish-peroxidase conjugated donkey anti-rabbit antibody (Amersham), followed by chemoluminescence-based detection (ECL, Amersham) and autoradiography.

[2] = system: human internal mammary artery smooth muscle cells (IMA SMC); assay: Inhibition of cell proliferation and recovery, human IMA SMC
From the text: Smooth muscle cells (SMC) were obtained under aseptic conditions from porcine abdominal aortas, and human internal mammary arteries (IMA). Specimens from the operating room were transferred on ice to the tissue culture room. Each artery was cut open and the endothelial surface mechanically scraped. The vessels were then cut into 2 mm^2 fragments which were placed in culture dishes with Dulbecco's modified Eagle's medium (DMEM) supplemented with 15% (v/v) fetal calf serum (FCS), 100 u/ml penicillin, 100 μg/ml streptomycin, and […] L-glutamine. The tissue fragments were then placed in an incubator at 37° C. under 9% CO2 atmosphere until SMC outgrowth was detected (typically within 3-7 days). […] For experiments testing the effect of tyrphostins on growth inhibition and recovery (see below), SMC from passages 1-3 were replated in 15 mm wells pretreated with 3 μg/cm^2 fibronectin (Biological Industries, Kibbutz Beit Haemek, Israel) at 15,000 cells/well.
Inhibition of cell proliferation and recovery: Monolayer cell growth inhibition and recovery experiments were repeated 3 or 4 times. Each experiment was performed in triplicate. Approximately 15,000 cells (SMC or EC) in 1 ml of culture medium supplemented with 15% FCS were seeded on day 0 in 15 mm-wells precoated with fibronectin. Cultures were treated with a tyrphostin (10 μM) dissolved in 0.1% DMSO on days 1 and 3. On day 6, cultures were washed and the cells allowed to recover. Typically cells were counted on days 3 and 5 for inhibition, and on days 7, 10 and 15 for recovery, other schedules were also employed as reported below. The medium supplemented with serum (M-199 with ECGS for EC, and DMEM for SMC) was changed every other day throughout the experiment.
FIG. 9 presents the maximal inhibitory and recovery effects on human IMA SMC growth inflicted by 10 or 25 μM of AG1851 and AG1295. Cells were grown in the presence of the specified tyrphostins and were counted after seven days in culture. On day 7 the cultures were washed and the cells allowed to recover. Seven days later they were counted for recovery. The bar graph show the maximal inhibition and the recovery in each experiment and for controls.

T1 sequence (F1RL75 109-1181): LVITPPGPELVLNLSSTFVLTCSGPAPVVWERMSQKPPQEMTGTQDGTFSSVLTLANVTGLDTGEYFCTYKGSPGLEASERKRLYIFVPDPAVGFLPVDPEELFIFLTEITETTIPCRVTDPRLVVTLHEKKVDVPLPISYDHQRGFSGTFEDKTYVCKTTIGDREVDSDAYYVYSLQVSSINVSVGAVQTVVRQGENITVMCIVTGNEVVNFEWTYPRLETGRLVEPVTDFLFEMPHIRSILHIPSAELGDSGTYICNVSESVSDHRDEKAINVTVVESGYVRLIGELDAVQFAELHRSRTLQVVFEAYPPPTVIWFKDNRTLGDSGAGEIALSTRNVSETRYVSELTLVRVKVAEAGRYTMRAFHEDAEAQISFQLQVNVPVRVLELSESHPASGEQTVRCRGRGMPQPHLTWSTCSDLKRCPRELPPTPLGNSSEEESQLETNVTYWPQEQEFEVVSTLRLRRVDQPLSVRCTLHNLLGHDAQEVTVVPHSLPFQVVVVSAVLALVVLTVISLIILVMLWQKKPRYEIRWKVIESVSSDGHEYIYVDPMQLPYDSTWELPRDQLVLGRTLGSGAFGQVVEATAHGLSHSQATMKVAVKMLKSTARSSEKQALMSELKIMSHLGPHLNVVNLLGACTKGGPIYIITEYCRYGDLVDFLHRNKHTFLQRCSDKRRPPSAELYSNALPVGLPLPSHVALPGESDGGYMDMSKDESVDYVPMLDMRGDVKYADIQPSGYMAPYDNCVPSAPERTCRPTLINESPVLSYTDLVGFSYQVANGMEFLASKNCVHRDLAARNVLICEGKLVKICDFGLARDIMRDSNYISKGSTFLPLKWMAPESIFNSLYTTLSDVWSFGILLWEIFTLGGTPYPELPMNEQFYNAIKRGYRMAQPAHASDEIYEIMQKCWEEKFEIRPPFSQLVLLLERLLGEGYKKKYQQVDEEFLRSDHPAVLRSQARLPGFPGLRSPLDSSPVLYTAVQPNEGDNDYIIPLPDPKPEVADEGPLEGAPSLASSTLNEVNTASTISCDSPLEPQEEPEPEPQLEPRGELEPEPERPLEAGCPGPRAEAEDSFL

Structure (SMILES): Cc1nc2cc3nc(-c4cccs4)cnc3cc2n1C [AG1992]
- inhibition at 10 µM [1]: 52%
- level of PDGF β-receptor protein present in the cells (PDGF β-receptor): without affecting the level
- inhibition of PDGF-BB induced PDGF β-receptor tyrosine-phosphorylation (PDGF β-receptor): completely inhibited

Structure (SMILES): Cc1nc2cc3nc(-c4ccccc4)cnc3cc2n1C [AG1851]
- reversibility of the effect on IMA SMC upon removal of the tyrphostin ([2]; 25 μM): completely reversible
- inhibition at 25 µM ([2]; Homo sapiens, 120 h, read-out: mean reduction / inhibition of IMA SMC proliferation compared to untreated or DMSO-treated cells): 54%
- level of PDGF β-receptor protein present in the cells (PDGF β-receptor): without affecting the level
- inhibition of PDGF-BB induced PDGF β-receptor tyrosine-phosphorylation (PDGF β-receptor): completely inhibited
